According to patent publication US7598244B2, “[1,2,4]triazolo[1,5,a]pyrimidin-2-ylurea derivative and use thereof” (Nippon Kayaku Kabushiki Kaisha, priority 2003, dated 2009):

Test system: MHC class I molecules of T1 cells (human lymphoma cell line 174×CEM.)
Test: Effect on expression of MHC class I from T1 cells (flow cytometry, MFI)
Format: cell-based
Settings: 3 days culture
Experimental: Effect on Expression of MHC Class I from T1 Cells (Human Lymphoma Cell Line 174×CEM.)
Using a 96-well flat bottom microplate, T1 cells (5.7×10^3 cells/200 μl/well) were cultured in an RPMI 1640 medium (Iwaki Glass) containing 10% fetal bovine serum (hereinafter abbreviated as FBS; Iruvine Scientific) in an incubator containing 5% carbon dioxide at 37° C. for 3 days, in the presence of a test compound having each concentration obtained by dilution at a common ratio route of 10 from 400 μM. After completion of the culture, the cells were stained with fluoroisothiocyanate-labeled mouse anti-human MHC class I monoclonal antibody (an antibody produced from the cell line W6/32 (ATCC No. CRL 1991)). The mean fluorescence intensity of the stained cells (hereinafter referred to as MFI) was measured using flow cytometry FACScan (BD). The obtained value was defined as an expression level of MHC class I molecules. A test compound concentration necessary for suppressing 20% of the expression level of MHC class I molecules (EC20 value) was calculated using the following formula (1).
[formula] • Eexp: MFI of cultured cells containing test compound after being stained with antibody • Cexp: MFI of cultured cells containing no test compounds after being stained with antibody

In order of falling “EC20 (concentration necessary for suppressing 20% of the expression level of MHC class I molecules)” value:
1. COc1cccc(-c2ccnc3nc(NC(=O)NCc4ccccc4)nn23)c1 [Example 019]  1100 nM
2. COc1ccc(-c2ccnc3nc(NC(=O)N[C@H](C(=O)NCCN4CCOCC4)C(C)C)nn23)cc1 [Example 079]  970 nM
3. CNC(=O)Nc1nc2nccc(-c3ccc(OC)cc3)n2n1 [Example 026]  900 nM
4. COc1ccc(-c2ccnc3nc(NC(=O)NCc4ccccn4)nn23)cc1 [Example 083]  870 nM
5. CC(C)NC(=O)Nc1nc2nccc(-c3ccc4c(c3)OCO4)n2n1 [Example 087]  780 nM
6. O=C(Nc1nc2nccc(-c3cccc(Cl)c3)n2n1)NC1CCCCC1 [Example 016]  730 nM
7. COc1ccc(-c2ccnc3nc(NC(=O)NCCCn4ccnc4)nn23)cc1 [Example 066]  720 nM
8. COc1ccc(-c2ccnc3nc(NC(=O)N[C@H](C(=O)NCCc4ccccn4)C(C)C)nn23)cc1 [Example 080]  710 nM
9. CNC(=O)[C@@H](NC(=O)Nc1nc2nccc(-c3ccc(OC)cc3)n2n1)C(C)C [Example 055]  690 nM
10. COc1ccc(-c2ccnc3nc(NC(=O)NCCN4CCOCC4)nn23)cc1 [Example 064]  670 nM
11. COc1ccc(-c2ccnc3nc(NC(=O)N[C@H](C(=O)NCc4cccnc4)C(C)C)nn23)cc1 [Example 078]  670 nM
12. COc1ccc(-c2ccnc3nc(NC(=O)N[C@H](C(=O)O)C(C)C)nn23)cc1 [Example 054]  630 nM
13. COc1ccc(-c2ccnc3nc(NC(=O)NC(C)CC(C)C)nn23)cc1 (racemic) [Example 235]  590 nM
14. O=C(Nc1nc2nccc(-c3ccccc3)n2n1)NC1CCCCC1 [Example 014]  570 nM
15. COc1ccc(-c2ccnc3nc(NC(=O)N[C@H](C(=O)N(C)C)C(C)C)nn23)cc1 [Example 056]  550 nM
16. COc1ccc(-c2ccnc3nc(NC(=O)N[C@H](C(=O)NC4CCN(Cc5ccccc5)CC4)C(C)C)nn23)cc1 [Example 074]  550 nM
17. O=C(NCc1ccccc1)Nc1nc2nccc(-c3cccc(O)c3)n2n1 [Example 025]  500 nM
18. CNC(=O)Nc1nc2nccc(-c3cccs3)n2n1 [Example 013]  480 nM
19. COc1cccc(-c2ccnc3nc(NC(=O)NC(C)C)nn23)c1 [Example 044]  480 nM
20. COc1ccc(-c2ccnc3nc(NC(=O)N[C@H](C(=O)N4CCOCC4)C(C)C)nn23)cc1 [Example 070]  480 nM
21. O=C(Nc1ccc(O)cc1)Nc1nc2nccc(-c3cccs3)n2n1 [Example 023]  430 nM
22. CC(C)NC(=O)Nc1nc2nccc(-c3cccc(O)c3)n2n1 [Example 084]  420 nM
23. 1-(4-methoxy-1-methylbutyl)-3-[7-(4-methoxyphenyl)-[1,2,4]triazolo[1,5-a]pyrimidin-2-yl]urea [Example 333]  410 nM
24. CCNC(=O)Nc1nc2nccc(-c3ccc(OC)cc3)n2n1 [Example 031]  400 nM
25. O=C(Nc1nc2nccc(-c3cccc(O)c3)n2n1)NC1CCCCC1 [Example 085]  400 nM
26. COc1ccc(-c2ccnc3nc(NC(=O)NC45CC6CC(CC(C6)C4)C5)nn23)cc1 [Example 035]  380 nM
27. CC(C)NC(=O)Nc1nc2nccc(-c3ccc(O)cc3)n2n1 [Example 053]  370 nM
28. COc1ccc(-c2ccnc3nc(NC(=O)NCCc4ccccn4)nn23)cc1 [Example 065]  350 nM
29. CC(C)NC(=O)Nc1nc2nccc(-c3ccc4c(c3)CCO4)n2n1 [Example 046]  340 nM
30. COc1ccc(-c2ccnc3nc(NC(=O)NC(C)C)nn23)cc1OC [Example 086]  340 nM
31. C[C@H](NC(=O)Nc1nc2nccc(-c3cccs3)n2n1)C(=O)OC(C)(C)C [Example 050]  330 nM
32. CCCCNC(=O)Nc1nc2nccc(-c3ccc(OC)cc3)n2n1 [Example 032]  250 nM
33. COc1cccc(C(C)NC(=O)Nc2nc3nccc(-c4cccc(OCC5CCCO5)c4)n3n2)c1 (mixture of isomers) [Example 206]  220 nM
34. COc1ccc(-c2ccnc3nc(NC(=O)NC(C)c4cccc(OCC(C)C)c4)nn23)cc1 (racemic) [Example 230]  220 nM
35. COc1cccc(-c2ccnc3nc(NC(=O)NC4CCCCC4)nn23)c1 [Example 017]  220 nM
36. COc1ccc(-c2ccnc3nc(NC(=O)NC(C)c4cccc(OC(=O)OCc5ccccc5)c4)nn23)cc1 (racemic) [Example 197]  210 nM
37. COc1ccc(-c2ccnc3nc(NC(=O)NC(C)c4cccc(O)c4)nn23)cc1 (racemic) [Example 196]  170 nM
38. O=C(Nc1nc2nccc(-c3cccs3)n2n1)NC1CCCC1 [Example 028]  152 nM
39. COc1ccc(-c2ccnc3nc(NC(=O)N[C@H](C(=O)Nc4ccccc4)C(C)C)nn23)cc1 [Example 088]  150 nM
40. O=C(Nc1nc2nccc(-c3ccc(O)c(O)c3)n2n1)NC1CCCCC1 [Example 068]  140 nM
41. COc1ccc(-c2ccnc3nc(NC(=O)NC(C)CCC(C)C)nn23)cc1 (racemic) [Example 236]  80 nM
42. COc1ccc(-c2ccnc3nc(NC(=O)NC(C)Cc4ccc(Cl)cc4)nn23)cc1 (racemic) [Example 142]  60 nM
43. COc1ccc(-c2ccnc3nc(NC(=O)NC(C)c4cccc(OS(C)(=O)=O)c4)nn23)cc1 (racemic) [Example 195]  60 nM
44. COc1ccc(-c2ccnc3nc(NC(=O)NC(C)c4cccc(OC(C)C)c4)nn23)cc1 (racemic) [Example 231]  50 nM
